Measured values reported in publication PMC2996585 (Journal of medicinal chemistry, 2010).
Entries after “also recorded” stand apart in the source; their conditions may differ. Where two headings read alike, the source gives them in different places. Bridges are numbered along the chain shown (N, C = ends). Where no end group is shown, it is not given here.

Biological target: T1, ENaC (Homo sapiens, UniProt P37088)
T1 sequence (P37088 1-669): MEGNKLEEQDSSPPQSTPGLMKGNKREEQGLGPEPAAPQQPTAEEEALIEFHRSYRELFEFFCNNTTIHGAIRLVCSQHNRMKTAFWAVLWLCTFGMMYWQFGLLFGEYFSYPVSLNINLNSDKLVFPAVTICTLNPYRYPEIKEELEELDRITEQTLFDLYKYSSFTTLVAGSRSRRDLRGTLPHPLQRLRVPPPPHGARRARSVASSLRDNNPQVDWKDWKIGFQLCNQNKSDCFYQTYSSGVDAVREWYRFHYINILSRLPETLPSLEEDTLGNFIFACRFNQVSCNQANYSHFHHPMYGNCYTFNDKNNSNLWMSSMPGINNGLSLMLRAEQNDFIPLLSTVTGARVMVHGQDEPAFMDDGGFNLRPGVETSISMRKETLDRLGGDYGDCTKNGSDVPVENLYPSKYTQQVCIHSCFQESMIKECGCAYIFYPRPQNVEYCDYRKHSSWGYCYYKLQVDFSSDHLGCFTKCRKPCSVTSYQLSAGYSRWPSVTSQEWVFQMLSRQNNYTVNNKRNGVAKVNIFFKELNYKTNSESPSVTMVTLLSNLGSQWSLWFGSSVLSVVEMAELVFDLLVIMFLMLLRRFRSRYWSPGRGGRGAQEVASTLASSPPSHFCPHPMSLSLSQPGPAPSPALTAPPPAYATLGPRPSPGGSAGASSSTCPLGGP
T1 sequence (P51168 1-640 partner): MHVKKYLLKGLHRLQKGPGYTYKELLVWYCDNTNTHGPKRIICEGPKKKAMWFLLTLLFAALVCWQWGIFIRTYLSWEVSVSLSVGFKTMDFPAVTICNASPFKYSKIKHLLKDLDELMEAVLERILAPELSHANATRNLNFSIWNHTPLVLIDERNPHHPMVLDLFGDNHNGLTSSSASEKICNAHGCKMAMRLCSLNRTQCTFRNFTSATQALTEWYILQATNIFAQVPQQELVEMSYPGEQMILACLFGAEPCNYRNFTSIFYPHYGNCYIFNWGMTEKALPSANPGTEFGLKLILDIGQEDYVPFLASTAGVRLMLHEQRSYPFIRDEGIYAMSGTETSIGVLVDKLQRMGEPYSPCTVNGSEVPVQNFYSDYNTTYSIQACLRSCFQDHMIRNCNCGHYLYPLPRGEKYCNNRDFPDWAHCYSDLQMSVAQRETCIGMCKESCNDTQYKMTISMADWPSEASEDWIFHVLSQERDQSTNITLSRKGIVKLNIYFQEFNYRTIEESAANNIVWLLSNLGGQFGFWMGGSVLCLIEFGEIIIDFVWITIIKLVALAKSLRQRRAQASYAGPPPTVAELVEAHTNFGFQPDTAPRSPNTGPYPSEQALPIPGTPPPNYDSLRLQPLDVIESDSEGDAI
T1 sequence (P51170 1-649 partner): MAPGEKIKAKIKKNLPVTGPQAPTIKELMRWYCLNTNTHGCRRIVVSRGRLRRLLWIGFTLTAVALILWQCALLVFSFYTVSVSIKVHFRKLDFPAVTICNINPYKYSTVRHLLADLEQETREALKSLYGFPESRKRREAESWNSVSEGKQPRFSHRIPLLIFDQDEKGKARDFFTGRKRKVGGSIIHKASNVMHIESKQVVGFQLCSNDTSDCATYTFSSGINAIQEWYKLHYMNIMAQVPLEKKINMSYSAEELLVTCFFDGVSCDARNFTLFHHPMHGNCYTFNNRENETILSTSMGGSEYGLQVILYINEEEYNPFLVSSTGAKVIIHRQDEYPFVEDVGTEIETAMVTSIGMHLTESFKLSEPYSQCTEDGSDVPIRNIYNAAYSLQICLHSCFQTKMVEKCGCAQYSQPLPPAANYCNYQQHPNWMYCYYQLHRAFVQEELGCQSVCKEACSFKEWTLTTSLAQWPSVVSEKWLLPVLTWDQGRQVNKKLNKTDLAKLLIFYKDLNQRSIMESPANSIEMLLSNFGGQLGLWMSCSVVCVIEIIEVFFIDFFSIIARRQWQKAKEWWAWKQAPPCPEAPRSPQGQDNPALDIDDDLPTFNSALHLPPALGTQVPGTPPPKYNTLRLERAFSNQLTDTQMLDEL
Type: cell-based
Settings: A549 cells, whole-cell patch clamp; for ENaC-activating effect / effect on sodium current (in words): no concentration stated at the place

Substance	Effect on ENaC (concentrations up to 480 nM)	ENaC-activating effect / effect on sodium current (in words)	Effect on ENaC (concentrations up to 240 nM)	ENaC-activating effect / effect on sodium current (in words) (listed as 22)
CGQREAPAGAAAKPWYC (disulfide 1-17) [compound 12, reference compound]	no effect	ineffective; also recorded: no effect	–	–
CQRETPEGAEAKGGC (disulfide 1-15) [compound 2]	no effect	ineffective; also recorded: inactive	–	–
Cyclo(4-aminobutanoic acid-GQRETPEGAEAKPWYG) (head to tail) [compound 7]	no effect	did not affect ENaC; also recorded: inactive	no effect	–
Cyclo(5-aminopentanoic acid-GQRETPEGAEAKPWYG) (head to tail) [compound 6]	no effect	did not affect ENaC; also recorded: inactive	no effect	–
Cyclo(6-aminohexanoic acid-GQRETPEGAEAKPWYG) (head to tail) [compound 11]	no effect	inactive	no effect	did not affect ENaC
Cyclo(7-aminoheptanoic acid-GQRETPEGAEAKPWY) (head to tail) [compound 10]	no effect	–	no effect	–
